Positions of bridges follow the written chain, without caps; N, C: chain ends. Non-standard residues stand in square brackets, D forms with d. Residues, ends and D or L forms follow the SMILES beside them.
What was measured:
[1] = tested on: serum insulin; experiment: Insulin Inhibition In Dogs (I.V. infusion, L-alanine stimulation, serum insulin by radioimmunoassay); type: in vivo, dog
Protocol: (§1) B. Insulin and Glucagon Inhibition In Dogs:
(§2) A normal dog is fasted overnight. An intravenous (I.V.) infusion of the test compound (dissolved in saline) is begun. Thirty minutes thereafter an additional infusion of L-alanine (dissolved in saline) is begun and is continued for a total of 15 minutes so that a total dose of about 1 mmole of L-alanine per kg. body weight is given. Infusion of the test compound is continued for an additional 15 minute period.
(§3) Blood samples are taken periodically before (at -20, -10 and -1 minutes) and after (5, 10, 15, 30, 35, 40, 45, 50, 60, 90, 120 and 150 minutes) the start of the infusion of the test compound. The serum insulin and serum glucagon concentrations in the blood are determined by radioimmunoassay. A plot is made of the glucagon and insulin concentrations versus time. The plot obtained from the test compound is compared to plots obtained from somatostatin and saline (controls) in similar experiments.
(§4) Infusion of L-alanine (in the absence of somatostatin or active test compound) causes an abrupt increase in serum insulin and glucagon concentrations. The concentrations return to basal levels after the L-alanine infusion is terminated.

[2] = tested on: growth hormone (GH) secretion; experiment: Growth Hormone Inhibition In Rats (pentobarbital-stimulated GH secretion, serum GH by radioimmunoassay); type: in vivo; conditions: male rats; for % Inhibition of GH release (as compared to control): compared to saline control; for Serum Growth Hormone Conc. Mean ± SEM: sodium pentobarbital 4 mg/rat I.P., 20 minutes after dosing
Protocol: A. Growth Hormone Inhibition In Rats:
This test is a modification of the method of P. Brazeau et al. Endocrinology, 94, 184 (1974). Male rats (weighing 100-110 g.) are divided into three groups of eight rats each. Each rat is administered sodium pentobarbital at a dose of 4 mg/rat (I.P.) to stimulate growth hormone (GH) secretion. Simultaneously, one group of rats receives the test compound (S.C.); the second group receives somatostatin (S.C.); and the third group (control) receives saline (S.C.). Twenty-minutes later, the animals are decapitated and blood samples are collected. The serum concentration of growth hormone (GH) is determined by radioimmunoassay. The mean GH concentration (± standard error of the mean) is calculated for each group. The percent inhibition of GH release (as compared to saline controls) is then calculated for the test compound and for somatostatin. When tested as above-described, the peptide of Example 4 (D-Ala^2, Ala^5, D-Trp^8, Val^10, D-Phe^11 -Somatostatin) representative of the peptides of Formula III, gave the results set forth below in Table I: […]

[3] = tested on: serum glucagon; experiment: Glucagon Inhibition In Dogs (I.V. infusion, L-alanine stimulation, serum glucagon by radioimmunoassay); type: in vivo, dog
Protocol: as §1, §2, §3, §4

[4] = normal fasted dog, I.V. infusion 0.237 μg/Kg./min, L-alanine infusion
[5] = dog, in the presence of L-alanine
[6] = dog, infusion alone (no L-alanine)

SMILES	inhibition of insulin concentration [1, 4]	% Inhibition of GH release (as compared to control) ([2]; dose 2 mg/kg S.C.) [%]	Serum Growth Hormone Conc. Mean ± SEM ([2]; dose 2 mg/kg S.C.) [ng/mL]	% Inhibition of GH release (as compared to control) ([2]; dose 50 mg/kg S.C.) [%]	Serum Growth Hormone Conc. Mean ± SEM ([2]; dose 50 mg/kg S.C.) [ng/mL]	inhibition of glucagon concentration [3, 4]	effect on increase in insulin concentration induced by L-alanine [1, 5]	effect on basal serum concentration of insulin [1, 6]	effect on increase in glucagon concentration induced by L-alanine [3, 5]	effect on basal serum concentration of glucagon [3, 6]
CC(C)[C@@H]1NC(=O)[C@H](CCCCN)NC(=O)[C@@H](Cc2c[nH]c3ccccc23)NC(=O)[C@H](Cc2ccccc2)NC(=O)[C@H](Cc2ccccc2)NC(=O)[C@H](C)NC(=O)[C@H](CCCCN)NC(=O)[C@@H](NC(=O)[C@@H](C)NC(=O)[C@H](C)N)CSSC[C@@H](C(=O)O)NC(=O)[C@H](CO)NC(=O)[C@H]([C@@H](C)O)NC(=O)[C@@H](Cc2ccccc2)NC1=O [Example 4, L-Alanyl-D-alanyl-L-cysteinyl-L-lysyl-L-alanyl-L-phenylalanyl-L-phenylalanyl-D-tryptophyl-L-lysyl-L-valyl-D-phenyl-alanyl-L-threonyl-L-seryl-L-cysteine cyclic (3->14) disulfide] (H-A[dA]CKAFF[dW]KV[dF]TSC-OH; disulfide 3-14)	no significant inhibition	7.8	61 ± 24	66	97 ± 39	no significant inhibition	–	–	–	–
C[C@H](N)C(=O)NCC(=O)N[C@H]1CSSC[C@@H](C(=O)O)NC(=O)[C@H](CO)NC(=O)[C@H]([C@@H](C)O)NC(=O)[C@H](Cc2ccccc2)NC(=O)[C@H]([C@@H](C)O)NC(=O)[C@H](CCCCN)NC(=O)[C@H](Cc2c[nH]c3ccccc23)NC(=O)[C@H](Cc2ccccc2)NC(=O)[C@H](Cc2ccccc2)NC(=O)[C@H](CC(N)=O)NC(=O)[C@H](CCCCN)NC1=O [Somatostatin]	–	63	105 ± 69	93	–	–	inhibits the increase	causes a decrease	inhibits the increase	causes a decrease
